Converted amounts (≈) assume the structure as drawn.

Common to all, as to assay type: cell-based
One assay relates to wild-type E. coli A-1261. Description: MIC of prodrug with or without alkaline phosphatase or esterase. The protocol: Minimal Inhibitory Concentrations (MICs; mg/L) were determined in cation-adjusted Mueller-Hinton Broth by a microdilution method following the description given in “Methods for Dilution Antimicrobial Susceptibility Tests for Bacteria that Grow Aerobically”, Approved standard, 7th ed., Clinical and Laboratory Standards Institute (CLSI) Document M7-A7, Wayne, Pa., USA (2006).
The compound of Example 86 was tested against wild-type E. coli A-1261 in the absence of alkaline phosphatase or esterase, in the presence of an alkaline phosphatase and in the presence of an esterase. The corresponding antibacterial test results are given in Table 2 hereafter (MICs in mg/L).

The test system of another assay is E. coli ATCC25922. Description: Bacterial growth minimal inhibitory concentration (CLSI broth microdilution). The settings on record: quinolone-sensitive strain, cation-adjusted Mueller-Hinton Broth; for MIC: Escherichia coli, ATCC25922. A digest of the protocol: (§1)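 MICs, expressed in mg/L, were determined by broth microdilution in cation-adjusted Mueller-Hinton broth according to CLSI M7-A7. K. pneumoniae A-651 is a multiply resistant, quinolone-resistant strain, whereas E. coli ATCC25922 and P. aeruginosa ATCC27853 are quinolone-sensitive.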

A further assay has as its system P. aeruginosa ATCC27853. Described as above. Particulars: quinolone-sensitive strain, cation-adjusted Mueller-Hinton Broth; for MIC: Pseudomonas aeruginosa, ATCC27853. In a few lines:
as §1

The next assay deals with K. pneumoniae A-651. The assay is described as above. The settings on record: multiply resistant strain (in particular quinolone-resistant), cation-adjusted Mueller-Hinton Broth; for MIC: Klebsiella pneumoniae, A651. A digest of the protocol:
as §1

With `C[C@@](CCN1Cc2cc(C#CC#CC3CN(CCO)C3)cn2C1=O)(C(=O)NOC(=O)CCc1ccccc1OP(=O)(O)O)S(C)(=O)=O` [Example 86, (2R)-2-(3-((4-(6-((1-(2-hydroxyethyl)azetidin-3-yl)buta-1,3-diyn-1-yl)-3-oxo-1H-pyrrolo[1,2-c]imidazol-2(3H)-yl)-2-methyl-2-(methylsulfonyl)butanamido)oxy)-3-oxopropyl)phenyl dihydrogen phosphate], in the assay on wild-type E. coli A-1261 (alkaline phosphatase 2 i.U./mL), the “MIC for E. coli A-1261 In the presence of an alkaline phosphatase (2 i.U./mL)” value was 1 µg/mL. For the same compound, in the assay on wild-type E. coli A-1261 (esterase 10 i.U./mL), the “MIC for E. coli A-1261 In the presence of an esterase (10 i.U./mL)” value turned out to be 16 µg/mL. In the assay on wild-type E. coli A-1261 (no alkaline phosphatase or esterase), the “MIC for E. coli A-1261 In the absence of alkaline phosphatase or esterase” value is 16 µg/mL.
As to `C[C@@](CCN1Cc2cc(C#CC#CC3CCN(C4COC4)C3)cn2C1=O)(C(=O)NO)S(C)(=O)=O` (stereo partly drawn) [Example 89, (2R)—N-hydroxy-2-methyl-2-(methylsulfonyl)-4-(6-((1-(oxetan-3-yl)pyrrolidin-3-yl)buta-1,3-diyn-1-yl)-3-oxo-1H-pyrrolo[1,2-c]imidazol-2(3H)-yl)butanamide], the MIC against E. coli ATCC25922 was found to be 1 µg/mL (≈ 2.05 µM); against P. aeruginosa ATCC27853, 2 µg/mL (≈ 4.09 µM); against K. pneumoniae A-651, 1 µg/mL (≈ 2.05 µM).
On to `C[C@@](CCN1Cc2cc(C#CC#CC3CN(C4CC(O)C4)C3)cn2C1=O)(C(=O)NO)S(C)(=O)=O` (stereo partly drawn) [Example 90, (2R)—N-hydroxy-4-(6-((1-((1r,3r)-3-hydroxycyclobutyl)azetidin-3-yl)buta-1,3-diyn-1-yl)-3-oxo-1H-pyrrolo[1,2-c]imidazol-2(3H)-yl)-2-methyl-2-(methylsulfonyl)butanamide], for which the “MIC for E. coli ATCC25922” value against E. coli ATCC25922 worked out at 0.5 µg/mL. Besides, the “MIC for P. aeruginosa ATCC27853” value against P. aeruginosa ATCC27853 was 1 µg/mL. Besides, the “MIC for K. Pneumoniae A-651” value with K. pneumoniae A-651 came to 0.5 µg/mL.
On to `C[C@@](CCN1Cc2cc(C#CC#CC3CN([C@H]4C[C@@H](O)C4)C3)cn2C1=O)(C(=O)NO)S(C)(=O)=O` [Example 91, (2R)—N-hydroxy-4-(6-((1-((1s,3s)-3-hydroxycyclobutyl)azetidin-3-yl)buta-1,3-diyn-1-yl)-3-oxo-1H-pyrrolo[1,2-c]imidazol-2(3H)-yl)-2-methyl-2-(methylsulfonyl)butanamide], for which, in the assay with E. coli ATCC25922, the “MIC for E. coli ATCC25922” value was 0.5 µg/mL. In addition, the “MIC for P. aeruginosa ATCC27853” value in the assay on P. aeruginosa ATCC27853 is 1 µg/mL. The “MIC for K. Pneumoniae A-651” value against K. pneumoniae A-651 was 0.5 µg/mL.
Turning to `C[C@H]1[C@H](C#CC#Cc2cc3n(c2)C(=O)N(CC[C@](C)(C(=O)NO)S(C)(=O)=O)C3)CN1C` [Example 92, (2R)-4-(6-(((2S,3R)-1,2-dimethylazetidin-3-yl)buta-1,3-diyn-1-yl)-3-oxo-1H-pyrrolo[1,2-c]imidazol-2(3H)-yl)-N-hydroxy-2-methyl-2-(methylsulfonyl)butanamide], the MIC against E. coli ATCC25922, in the assay on P. aeruginosa ATCC27853 and against K. pneumoniae A-651 was 0.25 µg/mL (≈ 0.56 µM) each time.
For `C[C@@H]1[C@@H](C#CC#Cc2cc3n(c2)C(=O)N(CC[C@](C)(C(=O)NO)S(C)(=O)=O)C3)CN1C` [Example 93, (2R)-4-(6-(((2R,3S)-1,2-dimethylazetidin-3-yl)buta-1,3-diyn-1-yl)-3-oxo-1H-pyrrolo[1,2-c]imidazol-2(3H)-yl)-N-hydroxy-2-methyl-2-(methylsulfonyl)butanamide], the MIC against E. coli ATCC25922 worked out at 0.25 µg/mL (≈ 0.56 µM); in the assay with P. aeruginosa ATCC27853, 0.25 µg/mL (≈ 0.56 µM); in the assay with K. pneumoniae A-651, 0.5 µg/mL (≈ 1.12 µM).
For the compound `CN1C[C@@H](C#CC#Cc2cc3n(c2)C(=O)N(CC[C@](C)(C(=O)NO)S(C)(=O)=O)C3)[C@@H]1CO` [Example 95, (2R)—N-hydroxy-4-(6-(((2R,3R)-2-(hydroxymethyl)-1-methylazetidin-3-yl)buta-1,3-diyn-1-yl)-3-oxo-1H-pyrrolo[1,2-c]imidazol-2(3H)-yl)-2-methyl-2-(methylsulfonyl)butanamide], the minimal inhibitory concentration (MIC) against E. coli ATCC25922 was found to be 1 µg/mL (≈ 2.16 µM); against P. aeruginosa ATCC27853, 0.5 µg/mL (≈ 1.08 µM); with K. pneumoniae A-651, 1 µg/mL (≈ 2.16 µM).
`C[C@@H]1[C@H](C#CC#Cc2cc3n(c2)C(=O)N(CC[C@](C)(C(=O)NO)S(C)(=O)=O)C3)CN1C` [Example 96, (2R)-4-(6-(((2R,3R)-1,2-dimethylazetidin-3-yl)buta-1,3-diyn-1-yl)-3-oxo-1H-pyrrolo[1,2-c]imidazol-2(3H)-yl)-N-hydroxy-2-methyl-2-(methylsulfonyl)butanamide]: the minimal inhibitory concentration (MIC) in the assay on E. coli ATCC25922 was determined as 4 µg/mL (≈ 8.96 µM); against P. aeruginosa ATCC27853 it was 2 µg/mL (≈ 4.48 µM); with K. pneumoniae A-651 it was 4 µg/mL (≈ 8.96 µM).
Consider `CN1C[C@H](C#CC#Cc2cc3n(c2)C(=O)N(CC[C@](C)(C(=O)NO)S(C)(=O)=O)C3)[C@H]1CO` [Example 97, (2R)—N-hydroxy-4-(6-(((2S,3S)-2-(hydroxymethyl)-1-methylazetidin-3-yl)buta-1,3-diyn-1-yl)-3-oxo-1H-pyrrolo[1,2-c]imidazol-2(3H)-yl)-2-methyl-2-(methylsulfonyl)butanamide], for which the figures for the MIC in the assay on E. coli ATCC25922, in the assay with P. aeruginosa ATCC27853 and against K. pneumoniae A-651 were 0.5 µg/mL (≈ 1.08 µM), 0.5 µg/mL (≈ 1.08 µM) and 1 µg/mL (≈ 2.16 µM), respectively.
On to `CN1C[C@H](C#CC#Cc2cc3n(c2)C(=O)N(CC[C@](C)(C(=O)NO)S(C)(=O)=O)C3)[C@H]1CF` [Example 98, (2R)—N-hydroxy-4-(6-(((2S,3S)-2-(fluoromethyl)-1-methylazetidin-3-yl)buta-1,3-diyn-1-yl)-3-oxo-1H-pyrrolo[1,2-c]imidazol-2(3H)-yl)-2-methyl-2-(methylsulfonyl)butanamide], for which the results for the MIC with E. coli ATCC25922, in the assay with P. aeruginosa ATCC27853 and in the assay on K. pneumoniae A-651 were 0.063 µg/mL (≈ 0.136 µM), 0.5 µg/mL (≈ 1.08 µM) and 0.25 µg/mL (≈ 0.538 µM), respectively.
For `C[C@@](CCN1Cc2cc(C#CC#C[C@H]3C[C@H](CO)N(C4COC4)C3)cn2C1=O)(C(=O)NO)S(C)(=O)=O` [Example 100, (2R)—N-hydroxy-4-(6-(((3R,5R)-5-(hydroxymethyl)-1-(oxetan-3-yl)pyrrolidin-3-yl)buta-1,3-diyn-1-yl)-3-oxo-1H-pyrrolo[1,2-c]imidazol-2(3H)-yl)-2-methyl-2-(methylsulfonyl)butanamide], in that order: 4 µg/mL (≈ 7.71 µM), 4 µg/mL (≈ 7.71 µM) and 4 µg/mL (≈ 7.71 µM).
In the case of “(2R)-4-(6-((1-isopropylazetidin-3-yl)buta-1,3-diyn-1-yl)-3-oxo-1H-pyrrolo[1,2-c]imidazol-2(3H)-yl)-2-methyl-2-(methylsulfonyl)-N-((tetrahydro-2H-pyran-2-yl)oxy)butanamide [Example 59]”, the “MIC for E. coli ATCC25922” value against E. coli ATCC25922 worked out at 1 µg/mL. Also, the “MIC for P. aeruginosa ATCC27853” value in the assay on P. aeruginosa ATCC27853 was 0.5 µg/mL. For the same compound, in the assay with K. pneumoniae A-651, the “MIC for K. Pneumoniae A-651” value came out at 0.5 µg/mL.

The term MIC denotes the least concentration at which growth counts as inhibited.

Values taken from patent publication US10314823B2, “Substituted 1,2-dihydro-3H-pyrrolo[1,2-c]imidazol-3-one antibacterial compounds” (IDORSIA PHARMACEUTICALS LTD, priority 2015, dated 2019).
